{"source": "patent US11235000B2", "about": "“Calcium peroxides nanoparticles as adjuvant therapy” (UNIVERSITY OF ULSTER, priority 2017, dated 2022)", "key": {"[1]": {"system": "Mia-PaCa 2 xenograft tumours", "assay": "PDT efficacy in vivo, tumour volume", "set-up": "species or system SCID mice", "details": "PDT alone (intratumoural Rose Bengal 100 μL, 0.1 mg/mL + white light 3 min); 5 days after treatment", "protocol": "All animals employed in this study were treated humanely and in accordance with licenced procedures under the UK Animals (Scientific Procedures) Act 1986. Mia-PaCa 2 xenograft tumours were established as described above. Once the tumours had reached an average volume of 254±17 mm^3 the mice were randomly separated into 4 groups (n=5). Group 1 involved untreated animals, group 2 the PDT only group, Group 3 the 1-CaO2 NPs only group and group 4 the PDT+1-CaO2 NPs group. For group 2, mice received an intratumoural injection (100 μL) of Rose Bengal (0.1 mg/mL) in a PBS solvent and the tumour was then exposed to a LED emitting white light for 3 min (0.05 J/cm^2). Group 3 received a tail vein injection (100 μL) of 1-CaO2 NPs in a PBS vehicle (2 mg/mL) while group 4 also received a tail vein injection (100 μL) of 1-CaO2 NPs in a PBS vehicle (2 mg/mL) in addition to an intratumoural injection (100 μL) of Rose Bengal (0.1 mg/mL) and light exposure as described for group 2. The tumour volume was measured daily over the course of 6 days using callipers."}, "[2]": {"system": "human BxPC-3 pancreatic cancer cells", "assay": "In vitro PDT of hypoxic cells, MTT cell viability", "format": "cell-based", "details": "PDT treatment alone (RB 1 μM + 532 nm LED 30 sec)", "protocol": "Having determined the ability of the CaO2 NPs to improve the light induced ROS generation of Rose Bengal in a simulated hypoxic environment, the next step was to determine if this improved ROS generation would also result in increased Rose Bengal mediated PDT killing of human BxPC-3 pancreatic cancer cells.\nBxPc3 cells were seeded in a 96 well plate at a density of 5×10^4 cells per well. The cells were cultured in an anaerobic cabinet (O2/CO2/N2, 0.1:5:94.9 v/v/v) for 3 hours to generate a hypoxic environment and then spiked with RB (1 μM) and incubated for a further 3 hours under anaerobic conditions. This concentration of RB is much lower than normally used in PDT cell-based studies (˜5 μM) and was chosen to enable a moderate PDT effect in the absence of CaO2 NPs so that any beneficial effect provided by the NPs could be determined (Chan et al., Tissue engineering, 13(1): 73-85, 2007). The cells were then incubated with an ethanol: PBS (50:50) solution of the NPs (50 μM) for 5 min before being exposed to light from a 532 nm emitting LED for 30 sec. The NP solution was then removed, the cells washed with fresh PBS and incubated in fresh media under normoxic conditions for a further 21 hours before cell viability was determined using a MTT assay. […]"}}, "data": [{"smiles": "O=C([O-])c1c(Cl)c(Cl)c(Cl)c(Cl)c1-c1c2cc(I)c(=O)c(I)c-2oc2c(I)c([O-])c(I)cc12.[Na+].[Na+]", "note": "[Rose Bengal]", "values": [{"measurement": "difference in tumour volume relative to untreated control animals", "setting": "[1]", "result": "no significant difference"}, {"measurement": "reduction in viability", "setting": "[2]", "result": 10.8, "unit": "%"}]}]}
